“Also recorded” adds a separate entry of the source.
Columns and labels:
[1] = system: endoproteinase activity of G. pallida; test: Endoproteinase activity of G. pallida female homogenate on RUBISCO with inhibitors/activators (SDS-PAGE densitometry); type: biochemical, Globodera pallida; conditions: RUBISCO substrate; for % enzyme activity: pH 5.7, 25 C, mean ± SEM, control 100 ± 7, 30 min
Procedure: Females of G. pallida were removed from potato roots and homogenised in EDTA (1 mm)-NaOH buffered distilled water (pH 6.0). The nematode homogenate was clarified by centrifugation at 13,000 g for 2 min and passed through non-absorbent cotton wool. The filtrate was used directly as the source of crude proteinases. pH was controlled using 0.1M of citrate-phosphate, sodium-phosphate and phosphate-carbonate buffers for pH 3.0-6.0, pH 6.5-7.5 and 8.0-8.5 respectively. These buffers were mixed with equal volume of the nematode homogenate and RUBISCO (150 μg) in 0.04% SDS resulting in a final reaction volume of 75 μl . […] The tubes were kept on ice for 30 min for full precipitation to occur. The supernatant was clarified by centrifugation (13,000 g, 2 min). The liberation of TCA-soluble amino groups from digested RUBISCO was used to quantify the proteolytic activity of nematode homogenates using 2, 4,6-trinitrobenzsulphonic acid (TNBS). TNBS reagent was made by mixing one volume of 0.3% (w/v) TNBS in water with four volume of 4% (w/v) sodium tetraborate in 0.15M NaOH. 250 μl of the reagent was mixed with 75 μl of sample and the reaction was allowed to proceed for 60 min at 30° C. before terminating by adding […] of 0.5M HCl. The absorbance at 340 nm was read against both homogenate and RUBISCO controls. Results are expressed as nmol of TCA-soluble amino groups liberated per min at 25° C. using a standard curve based on L-leucine in CP buffer.
Subsequent work was based on pH 5.7 using CP buffer. Females of G. pallida were rinsed in 50 mM CP buffer plus 1 mM EDTA and homogenised in ice-cold 50 mM CP buffer, centrifuging and filtering as before. The EDTA wash step was omitted for experiments using inhibitors or activators (see below).
25 μl of RUBISCO (from a stock solution in CP buffer of 1 mg/ml containing 0.04% SDS) was added to 20 μl of the sample homogenate and either 5 μl CP buffer or 5 μl of inhibitor/activator. After incubation for 60 min, the reaction was stopped by adding 30 μl of denaturing buffer and boiling for 2.5 min.
Stock inhibitor and activator solutions (Table 3) were made up in buffer and added to the nematode extract. The inhibitor/activator was pre-incubated with the enzyme solutions for 30 min at 25° C. before addition to the protein substrate
The gel was stained using Coomassie Brilliant Blue.
In order to elucidate the effect of activators and inhibitors on the proteolytic activity of nematode proteinase(s), RUBISCO was treated with the extract at 25 C. at a substrate protein-nematode protein ratio (w/w) of 8. After a 30 min incubation, the reaction mixture was terminated and analysed by SDS-PAGE. The RUBISCO substrate band in the gel was quantified densitometrically (Joyce Loble Chromscan 3), and the amount of protein remaining gave an estimation of the rate of activity of the proteinase.

[2] = system: proteolytic activity of the 5HT-induced exudate from J2; test: Proteolytic activity of the 5HT-induced exudate from J2 of G. pallida (biotin/gelatin microtitre plate assay); type: biochemical, Globodera pallida; conditions: for Relative Activity (% of controls at that pH), pH 5 / Relative Activity (% of controls at that pH), pH 6.8: CpTi 10 μg/ml, rice preparations 30 μg/ml, other concentrations not given; for Relative Activity (% of controls at that pH), pH 6.8: maize preparation 20 μg/ml
Procedure: Freshly hatched juveniles of G. pallida were incubated in 2.5 mM 5'hydroxytryptamine in water at 20° C. for 4 h. This caused material to exude from the mouth which can be visualized at the mouth by allowing the protein stain Ponceau S to diffuse through a small aliquot of the experimental sample containing the nematodes under a microscope slide and coverslip. Worms were removed from the medium by centrifugation at 3000 g for 2 min before the fluid was dialyzed at 4° C. against distilled water overnight. The material was freeze-dried in aliquots at -70° C. until use and reconstituted to 2.5 μg protein/ml dH2 O at 5° C. immediately before use. Assays were carried out in a reaction mixture prepared by mixing 50 μl of this solution with 20 μl of either 100 mM phosphate buffer at pH 6.8 or 100 mM titrate/phosphate buffer at pH 5 plus either 10 μl of the inhibitor under test at the concentrations given in Table 7 or dH2 O for corresponding control rates for the uninhibited exudate.
The assays were carried out by coating microtitre plates (NUNC) with 50 μl of 0.01 μg/ml biotin/gelatin in carbonate buffer (pH 9.6) overnight at 4° C. The plates were blocked with 1% gelatin and washed with PBS before adding 75 μl of freshly prepared reaction mixture for 18 h. The reaction was stopped by washing wells eight times with PBS-tween before adding 100 μl of avidin-conjugated alkaline phosphatase with 1% goat serum to each well for 1 h. The wells were washed as before with PBS-tween followed by 2 rinses in PBS before addition of 100 μl of 1 mg/ml P-nitrophenyl phosphate in substrate buffer (10% diethanolamine and 0.5 mM MgCl2) at pH 9.8. The color development was read at 405 nm using a plate reader (Biorad). All samples were compared against a reference blank which lacked nematode exudate preparation in the reaction mixture.

## CC(=O)[O][Hg][c]1ccccc1 [PMA]
[1]; pH 5.7
  Effect on endoproteinase activity (in words): almost total inhibition
[1]
  % enzyme activity: 11 ± 6%

## OC(CS)C(O)CS (centres unmarked) [DTT]
[1]; pH 5.7
  Effect on endoproteinase activity (in words): stimulated
[1]
  % enzyme activity: 128 ± 11%

## p-aminomercuribenzoate [PAMBA]
[1]; pH 5.7
  Effect on endoproteinase activity (in words): potent inhibitor; also recorded: almost total inhibition
[1]
  % enzyme activity: 3 ± 4%

## CC(C)C[C@H](NC(=O)[C@H]1O[C@@H]1C(=O)O)C(=O)NCCCCN=C(N)N [E-64, L-trans-epoxysuccinyl-leucylamide-(4-guanidino)-butane]
[1]; pH 5.7
  Inhibition of proteolytic activity: 21%
[1]
  % enzyme activity: 79 ± 6%
[2]
  Effect on proteolytic activity of the exudate at pH 5 (in words): inhibited
  Relative Activity (% of controls at that pH), pH 5: 0%
[2]; pH 6.8
  Relative Activity (% of controls at that pH), pH 6.8: 5%

## N[C@@H](CS)C(=O)O [Cys, cysteine]
[1]; pH 5.7
  Effect on endoproteinase activity (in words): stimulated
[1]
  % enzyme activity: 112 ± 5%
[2]
  Effect on proteolytic activity of the exudate at pH 5 (in words): stimulated
  Relative Activity (% of controls at that pH), pH 5: > 100%
[2]; pH 6.8
  Relative Activity (% of controls at that pH), pH 6.8: 100%

## O=C(O)CN(CCN(CC(=O)O)CC(=O)O)CC(=O)O [EDTA]
[2]
  Effect on proteolytic activity of the exudate at pH 5 (in words): stimulated
  Relative Activity (% of controls at that pH), pH 5: > 100%
[2]; pH 6.8
  Effect on proteolytic activity of the exudate at pH 6.8 (in words): inhibited
  Relative Activity (% of controls at that pH), pH 6.8: 93%

— patent publication US5494813A, “Nematode control with proteinase inhibitors” (Nickerson Biocem Limited, priority 1991, dated 1996)
